Assay results reported in US20040248897A1, “Substituted N-acylaniline derivatives, the preparation thereof, and their use as pharmaceutical compositions” (Boehringer Ingelheim Pharma GmbH & Co. KG, priority 2001, published 2004).

Tested on: human citrated plasma
Assay: aPTT time prolongation in human citrated plasma (Biomatic B10 coagulometer)
Type: biochemical
Details: effective concentration at which the aPTT time is double compared with the control, 37° C.
Procedure: were investigated for their effect on prolonging the aPTT time as follows:
Materials: plasma, from human citrated blood;
PTT reagent, Boehringer Mannheim (524298);
Calcium solution (0.025 mol/L), Behring Werke, Marburg (ORH 056/57),
Diethylbarbiturate acetate buffer, Behring Werke, Marburg (ORWH 60/61); and
Biomatic B10 coagulometer, Desaga, Wiesloch.
The aPTT time was determined using a Biomatic B10 coagulometer made by Messrs. Desaga.
The test substance was placed in the test tubes prescribed by the manufacturer with 0.1 mL of human citrated plasma and 0.1 mL of PTT reagent. The mixture was incubated for three minutes at 37° C. The clotting reaction was started by the addition of 0.1 mL of calcium solution. The time is measured using the apparatus from the addition of the calcium solution up to the clotting of the mixture. Mixtures to which 0.1 mL of DBA buffer had been added were used as the controls.
According to the definition, a dosage-activity curve was used to determine the effective concentration of the substance at which the aPTT time is double compared with the control.

Compound	aPTT time (ED200 in μM) [µM]
Cc1cc(C(=O)N2CCCC2C)c(C)cc1NC(=O)CNc1ccc(C(=N)N)cc1 (centres unmarked) [A, 4-{N-[2,5-dimethyl-4-(2-methylpyrrolidinocarbonyl)phenylaminocarbonylmethyl]-amino}benzamidine]	0.65
Cc1cc(C(=O)C(C)C)c(C)cc1NC(=O)CNc1ccc(C(=N)N)cc1 [B, 4-[N-(2,5-dimethyl-4-isopropylcarbonylphenylaminocarbonylmethyl)amino]benzamidine]	0.67
